Source: patent US20080221107A1, “Therapeutic Agents” (ASTRAZENECA AB, priority 2005, published 2008)

Key:
hERG = hERG (Homo sapiens, UniProt Q12809); experiment: hERG activity (planar-array-based voltage clamp, modified Kiss et al. method); assay type: cell-based
Description: hERG testing was performed using a modified version of the method described by Kiss L, Bennett P B, Uebele V N, Koblan K S, Kane S A, Neagle B, Schroeder K. “High throughput ion-channel pharmacology: planar-array-based voltage clamp.” Assay Drug Dev Technol. 1, 127-35. (2003).

[1] = target: T1, human Melanin concentrating hormone receptor 1 (hMCHr1) (Homo sapiens, UniProt Q99705); experiment: MCHr1 receptor radioligand binding (125I-MCH, membranes from CHO-K1 cells); details: 125I-MCH displacement, CHO-K1 membranes expressing hMCHr1, 30° C. 60 minutes; read-out: IC50 in human MCHr binding assay
T1 construct: purchased Euroscreen; host or cells: CHO-K1 cells (recombinant expression; membranes)
T1 sequence (Q99705 whole entry): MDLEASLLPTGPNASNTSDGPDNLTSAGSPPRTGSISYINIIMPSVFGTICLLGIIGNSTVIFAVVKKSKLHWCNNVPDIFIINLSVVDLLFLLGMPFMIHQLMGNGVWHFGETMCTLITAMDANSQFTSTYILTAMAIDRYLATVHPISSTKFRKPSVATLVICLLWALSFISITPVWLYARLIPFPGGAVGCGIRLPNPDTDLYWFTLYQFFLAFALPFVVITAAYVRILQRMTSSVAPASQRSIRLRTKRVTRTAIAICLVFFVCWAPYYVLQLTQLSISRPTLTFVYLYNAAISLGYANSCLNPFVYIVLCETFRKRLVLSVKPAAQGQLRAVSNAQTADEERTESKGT
Description: Assays were performed in a 96-well plate format in a final reaction volume of 200 μl per well. […] Filters were washed with assay buffer.
Non-specific binding was subtracted from all values determined. […] Binding of compounds at various concentrations was plotted according to the equation

Chain of hERG (Q12809 whole entry): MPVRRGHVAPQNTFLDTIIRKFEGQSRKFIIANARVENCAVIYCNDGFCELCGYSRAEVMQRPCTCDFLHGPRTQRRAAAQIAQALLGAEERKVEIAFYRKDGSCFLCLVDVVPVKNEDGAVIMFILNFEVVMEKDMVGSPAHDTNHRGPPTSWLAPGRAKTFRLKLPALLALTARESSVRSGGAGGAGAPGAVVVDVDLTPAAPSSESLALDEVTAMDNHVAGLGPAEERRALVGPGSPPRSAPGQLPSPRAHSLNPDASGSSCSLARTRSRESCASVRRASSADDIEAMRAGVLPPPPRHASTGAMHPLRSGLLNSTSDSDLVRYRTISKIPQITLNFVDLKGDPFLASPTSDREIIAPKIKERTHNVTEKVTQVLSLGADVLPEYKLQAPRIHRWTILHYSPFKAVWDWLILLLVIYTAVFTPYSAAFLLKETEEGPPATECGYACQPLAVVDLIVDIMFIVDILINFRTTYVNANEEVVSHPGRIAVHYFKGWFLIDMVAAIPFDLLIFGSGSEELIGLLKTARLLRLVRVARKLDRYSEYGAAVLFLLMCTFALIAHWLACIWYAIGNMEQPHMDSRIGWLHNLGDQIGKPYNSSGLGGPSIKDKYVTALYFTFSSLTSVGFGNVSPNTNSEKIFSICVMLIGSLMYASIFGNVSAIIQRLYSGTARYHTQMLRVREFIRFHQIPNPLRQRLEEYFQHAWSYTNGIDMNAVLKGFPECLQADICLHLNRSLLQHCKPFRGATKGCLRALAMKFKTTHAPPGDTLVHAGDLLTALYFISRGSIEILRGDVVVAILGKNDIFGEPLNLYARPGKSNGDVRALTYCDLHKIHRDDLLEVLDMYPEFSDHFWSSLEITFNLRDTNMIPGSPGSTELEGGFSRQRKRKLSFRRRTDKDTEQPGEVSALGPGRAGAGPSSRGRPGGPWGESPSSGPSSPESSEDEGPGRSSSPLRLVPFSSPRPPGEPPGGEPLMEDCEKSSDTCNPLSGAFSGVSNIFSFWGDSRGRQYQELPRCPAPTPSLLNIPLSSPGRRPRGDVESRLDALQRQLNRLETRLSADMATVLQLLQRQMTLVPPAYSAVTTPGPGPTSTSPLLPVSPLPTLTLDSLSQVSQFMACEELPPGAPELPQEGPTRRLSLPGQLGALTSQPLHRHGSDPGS

- IC50 [1]: 0.011 µM
Compound: COc1cc(-n2nnc3cc(-c4ccc(Cl)cc4)sc3c2=O)ccc1N1CC[C@@H](O)C1 [Example 1, 6-(4-Chlorophenyl)-3-{4-[(3R)-3-hydroxypyrrolidin-1-yl]-3-methoxyphenyl}thieno[3,2-d][1,2,3]triazin4(3D)-one]
- IC50 (hERG): > 5 µM
